Results reported in patent US4423063A, “2,4-Dioxo-4-substituted-1-butaoic acid derivatives useful in treating urinary track calcium oxalate lithiasis” (Merck & Co., Inc., priority 1982, dated 1983).

Biological target: T1, pig liver glycolate oxidase (Sus scrofa, UniProt I3LVF1)
T1 construct: The enzyme was pig liver glycolate oxidase; from tissue; host or cells: pig liver
T1 sequence (I3LVF1 1-370): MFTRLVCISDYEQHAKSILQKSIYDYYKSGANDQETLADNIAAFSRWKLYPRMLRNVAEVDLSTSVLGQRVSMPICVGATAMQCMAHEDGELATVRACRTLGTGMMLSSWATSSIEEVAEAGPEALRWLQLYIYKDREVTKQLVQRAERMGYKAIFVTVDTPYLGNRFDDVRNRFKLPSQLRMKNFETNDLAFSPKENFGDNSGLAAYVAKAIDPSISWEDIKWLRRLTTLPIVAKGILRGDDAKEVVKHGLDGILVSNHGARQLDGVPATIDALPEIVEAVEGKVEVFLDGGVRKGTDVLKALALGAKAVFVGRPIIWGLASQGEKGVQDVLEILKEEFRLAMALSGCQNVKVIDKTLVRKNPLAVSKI
Experiment: Glycolate oxidase enzyme inhibition
Assay type: biochemical
Settings: 25° C., 0.10 M phosphate buffer pH 7.0, 3 mM EDTA, 2×10^-4 M sodium glycolate
Experimental: The usefulness of the compounds of the present invention in treating urinary tract, especially renal, calcium oxalate lithiasis, is shown by the ability of those compounds to inhibit the glycolate oxidase enzyme. […] The activity of the enzyme, in turn, was measured by following the rate of reduction of sodium 2,6-dichlorophenol-indophenol by sodium glycolate in the presence of the enzyme. The enzyme was pig liver glycolate oxidase. The reaction was followed spectrophotometrically at 600 nm. The assay was conducted at 25° C. in a 0.10 M phosphate buffer, pH 7.0, containing 3 mM EDTA. Initial substrate concentrations were 5×10^-5 M of sodium 2,6-dichlorophenol-indophenol and 2×10^-4 M of sodium glycolate. Reactions were initiated by the addition of enzyme. Initial rates during the period from 1 to 3 min. after the addition of enzyme were recorded on a Beckman Acta M-VI spectrophotometer. One control was run simultaneously with three test reactions and all initial rates were adjusted to a common control rate. For further details of this procedure, see Randall et al., J. Med. Chem., 22, 6, 612 (1979).

SMILES	IC50 [nM]	IC50 (unit inferred) [nM]
O=C(O)C(=O)CC(=O)c1ccc(-c2ccc(SCCc3ccncc3)cc2)cc1 [4-[[4'-[2-(4-Pyridinylethyl)thio]-1,1'-biphenyl]-4-yl]-2,4-dioxo-1-butanoic acid]	90	
O=C(O)C(=O)CC(=O)c1ccc(-c2ccc(SCc3ccccc3)cc2)cc1 [4-[[4'-[(Phenylmethyl)thio]-1,1'-biphenyl]-4-yl]-2,4-dioxo-1-butanoic acid]	420	
CSc1ccc(-c2ccc(C(=O)CC(=O)C(=O)O)cc2)cc1 [4-[(4'-Methylthio-1,1'-biphenyl)-4-yl]-2,4-dioxo-1-butanoic acid]		150
O=C(O)C(=O)CC(=O)c1ccc(-c2ccc(SCC3(O)COc4ccccc4OC3)cc2)cc1 [4-[[4'-[(3,4-dihydro-3-hydroxy-2H-1,5-benzodioxepin-3-yl)methylthio]-1,1'-biphenyl]-4-yl]-2,4-dioxo-1-butanoic acid]	62	
O=C(O)C(=O)CC(=O)c1ccc(-c2ccc(S)cc2)cc1 [4-[(4'-Mercapto-1,1'-biphenyl)-4-yl]-2,4-dioxo-1-butanoic acid]	2100	
